Read-outs that look alike come from different tables or passages of the source.
Assays:
[1] = molecular target: T1, Bce, oxalate decarboxylase from Bacillus cereus, SEQ ID NO: 1 (Bacillus cereus, UniProt Q81GZ6); assay: Enzyme kinetics, oxalate degradation by Bce OxDC; details: pH 3.0 and below
Experimental: (§4) For determining the pH activity profile of enzymes activity was determined from pH 1.5 to 8.0 using a combination of citrate and phosphate buffers (50 mM). Test sample is added to pre-heated reaction buffer and incubated at 37° C., shaking at 1100 rpm, for a range of set time points (t). The reaction is quenched at time t±5 seconds using 2.5 N H2SO4 at a 10% rate of acid to reaction mixture. The quenched reaction mixture is filtered and analyzed for formate concentration using an isocratic ion exclusion HPLC method.
(§5) The quenched reaction mixture is filtered and analyzed on an Agilent 1100 series HPLC system equipped with Rezex™ ROA-Organic Acid H+ (8%), LC Column (300×7.8 mm) from Phenomenex. Injection volume is 40 μl, and mobile phase is 5 mM H2SO4 (Isocratic) with flow rate at 0.6 mL/min and column temperature at 40° C. Standards of oxalic acid and formic acid are analyzed during every batch to prepare the standard curves. The running time between each injection is 20 min, and oxalic acid and formic acid are eluted at around 8 min and 16 min, respectively, detected at wavelength 210 nm.
(§6) The A8 enzyme was measured at four independent pH's of: 5.0, 4.0, 3.5 and 3.0. […] The reaction was terminated by adding 2.5N H2SO4, and analyzed for formate content by HPLC, as described in Example 1. […] The initial reaction rates during the first 5 minutes were determined for substrate concentrations between 0.024-12.5 mM, using same procedure described in Example 1.

[2] = test system: oxalate decarboxylases A8, Cb6301, Cb6312, Cb6803 and Bce; assay: Affinity for oxalate of A8, Cb6301, Cb6312, Cb6803 and Bce (range); assay type: biochemical
Experimental: (§1) The enzyme kinetics of OxDC from four different species, Bce, Bcl, Cb6301_D29, and A8 were measured and compared to known kinetic data of YvrK. […] The reaction was terminated by adding 2.5N H2SO4, and analyzed for formate content by HPLC, as described in Example 1. The reaction without oxalate was included as negative control. The initial reaction rates during the first 5 minutes were determined for substrate concentrations between 0.024-12.5 mM, using same procedure described in Example 1.

[3] = test system: oxalate decarboxylase (OxDC) enzymes of Table 5; assay: Catalytic efficiency of the OxDC enzymes (range); assay type: biochemical; details: see Table 5
Experimental: as §1

[4] = molecular target: T2, Cb6301, oxalate decarboxylase from Synechococcus elongates 6301, SEQ ID NO: 2 (Synechococcus elongatus, UniProt A0A0H3K3X3); assay: Enzyme kinetics, oxalate, Cb6301 OxDC; assay type: biochemical; details: Cb6301, pH 3.0 and below
T2 construct: native trimer; the kinetic measurement was probably on the D29 form
T2 sequence (A0A0H3K3X3 1-389): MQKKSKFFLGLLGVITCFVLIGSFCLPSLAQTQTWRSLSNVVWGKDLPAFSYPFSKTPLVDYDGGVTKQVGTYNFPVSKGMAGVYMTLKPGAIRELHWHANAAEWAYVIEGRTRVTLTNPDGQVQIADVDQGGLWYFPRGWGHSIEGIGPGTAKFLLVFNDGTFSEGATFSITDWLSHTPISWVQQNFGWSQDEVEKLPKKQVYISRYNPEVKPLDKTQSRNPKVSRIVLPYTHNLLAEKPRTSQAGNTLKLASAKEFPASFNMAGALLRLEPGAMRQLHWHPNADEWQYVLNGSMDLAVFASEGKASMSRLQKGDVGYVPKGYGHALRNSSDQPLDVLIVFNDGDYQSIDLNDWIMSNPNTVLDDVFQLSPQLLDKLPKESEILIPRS
Experimental: as §1

[5] = molecular target: T3, A8/A0, oxalate decarboxylase from Agrocybe aegerita, SEQ ID NO: 42 (Cyclocybe aegerita, UniProt A0A8S0X585); assay: Enzyme kinetics, oxalate degradation by A8/A0 OxDC; assay type: biochemical
T3 construct: A0 from fungal cells (homogenate), A8 from culture supernatant of A. aegerita; A8 also recombinant in E. coli (pColdIV, pOTIpr or pET)
T3 sequence (A0A8S0X585 with tags, fused parts or gaps): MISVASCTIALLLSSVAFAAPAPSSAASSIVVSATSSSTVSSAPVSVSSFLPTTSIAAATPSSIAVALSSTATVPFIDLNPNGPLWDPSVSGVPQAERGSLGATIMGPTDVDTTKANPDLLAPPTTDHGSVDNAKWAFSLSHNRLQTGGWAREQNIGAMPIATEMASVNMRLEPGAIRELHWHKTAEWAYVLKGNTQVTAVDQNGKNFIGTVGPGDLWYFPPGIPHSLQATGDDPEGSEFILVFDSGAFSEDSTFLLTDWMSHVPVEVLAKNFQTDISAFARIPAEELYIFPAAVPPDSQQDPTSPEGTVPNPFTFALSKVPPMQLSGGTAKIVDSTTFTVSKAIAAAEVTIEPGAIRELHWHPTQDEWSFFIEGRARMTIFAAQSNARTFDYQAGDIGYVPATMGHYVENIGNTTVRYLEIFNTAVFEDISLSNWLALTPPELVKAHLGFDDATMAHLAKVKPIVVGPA
Experimental: as §1, with “YvrK. […] The A8 enzyme was measured at four independent pH's of: 5.0, 4.0, 3.5 and 3.0.” for “YvrK.”
(§2) To determine the kinetic parameters, kcat and Km, the reaction rates v0 at different substrate concentration [S] were fit to Michaelis-Menten equation in KaleidaGraph software: v0=kcat*[E]t*[S]/(Km+[S])
(§3) Unprotonated glutamic acids in an undisrupted active site are more likely to be kept unprotonated than the equivalent residues in a disrupted active site (such as the active site of a disrupted hexamer).

[6] = test system: YvrK, oxalate decarboxylase from Bacillus subtilis, SEQ ID NO: 47; details: cited from earlier work
O=C(O)C(=O)O = assay: purified protein, by the assay type; details: other: Bce, pH 3.0, 37° C.
Experimental: as §4, §5, §6

[7] = molecular target: T1, Bce, oxalate decarboxylase from Bacillus cereus, SEQ ID NO: 1; details: 2 mM chemical, 6 days at 40° C., pH 9.5, tested at pH 3, against Bce 40° C. control
Experimental: as §4
Injection volume is 40 μl, and mobile phase is 5 mM H2SO4 (Isocratic) with flow rate at 0.6 mL/min and column temperature at 40° C. Standards of oxalic acid and formic acid are analyzed during every batch to prepare the standard curves. The running time between each injection is 20 min, and oxalic acid and formic acid are eluted at around 8 min and 16 min, respectively, detected at wavelength 210 nm.
Several different chemicals at final concentrations of 2 mM were added into the purified OxDC enzymes solution of Bce or Cb6301_D29, obtained as Example 3. After mixing well, these mixtures, in 50 mM Arginine at pH 9.5, were incubated at 40° C. without shaking (still) for 6 days. The enzymes themselves, without added chemicals, were incubated at 40° C. and 4° C. as controls. […]

[8] = substrate: O=C(O)C(=O)O; assay: purified protein, by the assay type; assay type: biochemical, Agrocybe aegerita
Experimental: as §1, with “YvrK. […] The A8 enzyme was measured at four independent pH's of: 5.0, 4.0, 3.5 and 3.0.” for “YvrK.”
as §2, §3

[9] = substrate: O=C(O)C(=O)O; assay: purified protein, by the assay type; assay type: biochemical, Bacillus clausii; details: other: Bcl, oxalate, pH 3.0, 37° C.
Experimental: as §4, §5, §6

[10] = substrate: O=C(O)C(=O)O; assay: purified protein, by the assay type; assay type: biochemical, Synechococcus elongates 6301; details: other: Cb6301_D29, oxalate, pH 3.0, 37° C.
Experimental: as §1, with “YvrK. […] The A8 enzyme was measured at four independent pH's of: 5.0, 4.0, 3.5 and 3.0.” for “YvrK.”
as §2

[11] = other: A8, pH 3.0, 37° C., pH 3.0, 37.0 °C

T1 sequence (Q81GZ6 entry or part of it): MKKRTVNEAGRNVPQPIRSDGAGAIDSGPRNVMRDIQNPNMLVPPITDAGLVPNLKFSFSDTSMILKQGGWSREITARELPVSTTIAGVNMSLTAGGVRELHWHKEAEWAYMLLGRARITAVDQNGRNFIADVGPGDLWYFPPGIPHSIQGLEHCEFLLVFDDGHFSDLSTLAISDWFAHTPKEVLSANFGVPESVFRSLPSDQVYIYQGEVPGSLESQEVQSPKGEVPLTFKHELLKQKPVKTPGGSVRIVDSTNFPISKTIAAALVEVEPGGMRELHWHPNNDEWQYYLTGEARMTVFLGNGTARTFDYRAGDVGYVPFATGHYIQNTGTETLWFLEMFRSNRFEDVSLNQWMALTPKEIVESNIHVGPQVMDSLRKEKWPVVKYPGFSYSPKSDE

Molecule: O=C(O)C(=O)O [oxalate]
- Km [1]: < 1000 µM
- Km [2]: 80 to 500 µM
- catalytic efficiency [3]: 871-77000 conversions/M/s
- Km [4]: < 1000 µM
- Km ([5]; A8/A0, pH 3.0 and below): < 1000 µM
- Km as a function of pH ([5]; A8, pH 5.0, 4.0, 3.5 and 3.0): decreases as the pH becomes more acidic
- Km ([6]; YvrK, oxalate, pH 4.2, 22° C.): 8400 µM
- Km ([6]; YvrK, pH 4.0): 8400 µM
- kcat ([6]; YvrK, pH 4.2, 22° C.): 53 s⁻¹
- kcat/KM ([6]; YvrK, pH 4.2, 22° C.): 6310 M⁻¹ s⁻¹
- Km ([6]; Yvrk, pH not given): 8400 µM

Molecule: Bce, oxalate decarboxylase from Bacillus cereus, SEQ ID NO: 1 (Bacillus cereus ATCC 14579)
- kcat (O=C(O)C(=O)O): 11.2 s⁻¹
- kcat/Km (O=C(O)C(=O)O): 35000 M⁻¹ s⁻¹

Molecule: O=C(O)CN(CCN(CC(=O)O)CC(=O)O)CC(=O)O [EDTA]
- enzyme activity [7]: decreases significantly

B1: A8/A0, oxalate decarboxylase from Agrocybe aegerita, SEQ ID NO: 42 (Cyclocybe aegerita) (protein)
chain: T3 sequence (A0A8S0X585 with tags, fused parts or gaps)
notes: A0 from fungal cells (homogenate), A8 from culture supernatant of A. aegerita; A8 also recombinant in E. coli (pColdIV, pOTIpr or pET)
- Km ([8]; other: A0, pH not given): 80 µM
- kcat [8, 11]: 42 s⁻¹
- kcat/Km [8, 11]: 525000 M⁻¹ s⁻¹

B2: Bcl, oxalate decarboxylase from Bacillus clausii, SEQ ID NO: 41 (Shouchella clausii KSM-K16) (protein)
chain: MKRGDNVKPLKGNPNIPQPIRADGAGGVDRGPRNLMRDLQNPNILVPPETDRGLIPNLRFSFSDAHMQLNHGGWSREITQRDLPIATTLAGVNMSLTPGGVRELHWHKQAEWSYMLLGHARITAVDQNGRNFIADVGPGDLWYFPPGIPHSIQGLDDGCEFLLVFDDGMFSDLSTLSLSDWMAHTPKDVLSANFGVPESVFATIPTEQVYIYQDEVPGPLQSQQINSPYGAVPQTFKHELLKQPPLVTPGGSVRIVDSRNFPVSKTIAAALVEVEPGAMREMHWHPNNDEWQYYLTGQARMTVFTGNGVARTFDYRAGDVGYVPFATGHYIQNTGNESVWFLEMFKSDRFEDVSLNQWLALTPTELVQHNIHVDSKFTNKLRKEKWPVVKYPTI
- Km [9]: 1200 µM
- kcat [9]: 1.05 s⁻¹
- kcat/Km [9]: 871 M⁻¹ s⁻¹

B3: Cb6301_D29, oxalate decarboxylase from Synechococcus elongates 6301 where the first 29 amino acids at the n-terminus has been removed, SEQ ID NO: 3 … (protein)
chain: MQTQTWRSLSNVVWGKDLPAFSYPFSKTPLVDYDGGVTKQVGTYNFPVSKGMAGVYMTLKPGAIRELHWHANAAEWAYVIEGRTRVTLTNPDGQVQIADVDQGGLWYFPRGWGHSIEGIGPGTAKFLLVFNDGTFSEGATFSITDWLSHTPISWVQQNFGWSQDEVEKLPKKQVYISRYNPEVKPLDKTQSRNPKVSRIVLPYTHNLLAEKPRTSQAGNTLKLASAKEFPASFNMAGALLRLEPGAMRQLHWHPNADEWQYVLNGSMDLAVFASEGKASMSRLQKGDVGYVPKGYGHALRNSSDQPLDVLIVFNDGDYQSIDLNDWIMSNPNTVLDDVFQLSPQLLDKLPKESEILIPRS
notes: start Met followed by residues 31-389), recombinant in E. coli
- Km [10]: 200 µM
- kcat [10]: 15.4 s⁻¹
- kcat/Km [10]: 77000 M⁻¹ s⁻¹
